Where only a bound is given, the exact number is not on record here.

Series [1] addresses Cytochrome P450 2C19 (Homo sapiens, UniProt P33261). The series is described as follows: Inhibition of CYP2C19 (unknown origin). In kind it is ADME.
Series [2] addresses T1, Cytochrome P450 2C8 (Homo sapiens, UniProt P10632).
T1 sequence (P10632 whole entry): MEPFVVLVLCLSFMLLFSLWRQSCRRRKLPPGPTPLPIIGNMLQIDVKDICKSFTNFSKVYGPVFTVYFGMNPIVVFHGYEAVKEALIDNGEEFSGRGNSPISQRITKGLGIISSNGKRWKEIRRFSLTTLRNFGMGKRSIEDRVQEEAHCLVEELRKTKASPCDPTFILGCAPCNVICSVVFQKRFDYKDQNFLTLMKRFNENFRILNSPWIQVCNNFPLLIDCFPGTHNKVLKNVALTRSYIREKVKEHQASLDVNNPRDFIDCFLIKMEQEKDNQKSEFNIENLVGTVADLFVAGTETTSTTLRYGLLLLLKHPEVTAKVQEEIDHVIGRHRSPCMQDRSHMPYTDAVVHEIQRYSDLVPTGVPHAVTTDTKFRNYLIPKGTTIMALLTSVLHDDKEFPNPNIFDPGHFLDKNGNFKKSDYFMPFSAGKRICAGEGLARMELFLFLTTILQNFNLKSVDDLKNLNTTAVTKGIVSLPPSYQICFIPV
Nature of the series: Inhibition of CYP2C8 (unknown origin). In kind it is ADME.

Series [3] can be described thus: Cytotoxicity against PHA-activated T-cells (unknown origin) assessed as inhibition of IL-2 induced cell proliferation measured after 72 hrs by MTS assay. In kind it is toxicity, cell-based. In general terms: Tetrazolium dyes change colour on reduction, which living cells bring about.
The target of series [4] is Voltage-gated inwardly rectifying potassium channel KCNH2 (Homo sapiens, UniProt Q12809). Nature of the series: Inhibition of hERG. In kind it is toxicity.
Series [5] addresses Cytochrome P450 2D6 (Homo sapiens, UniProt P10635). The series is described as follows: Inhibition of CYP2D6 (unknown origin). In kind it is ADME.
Series [6] concerns the target T2, Cytochrome P450 3A4 (Homo sapiens, UniProt P08684). The series is described as follows: Inhibition of CYP3A4 (unknown origin) using BFC as substrate preincubated with compound followed by substrate addition at 30 mins. In kind it is ADME.
In series [7] the target is T3, Cytochrome P450 1A2 (Homo sapiens, UniProt P05177).
T3 sequence (P05177 whole entry): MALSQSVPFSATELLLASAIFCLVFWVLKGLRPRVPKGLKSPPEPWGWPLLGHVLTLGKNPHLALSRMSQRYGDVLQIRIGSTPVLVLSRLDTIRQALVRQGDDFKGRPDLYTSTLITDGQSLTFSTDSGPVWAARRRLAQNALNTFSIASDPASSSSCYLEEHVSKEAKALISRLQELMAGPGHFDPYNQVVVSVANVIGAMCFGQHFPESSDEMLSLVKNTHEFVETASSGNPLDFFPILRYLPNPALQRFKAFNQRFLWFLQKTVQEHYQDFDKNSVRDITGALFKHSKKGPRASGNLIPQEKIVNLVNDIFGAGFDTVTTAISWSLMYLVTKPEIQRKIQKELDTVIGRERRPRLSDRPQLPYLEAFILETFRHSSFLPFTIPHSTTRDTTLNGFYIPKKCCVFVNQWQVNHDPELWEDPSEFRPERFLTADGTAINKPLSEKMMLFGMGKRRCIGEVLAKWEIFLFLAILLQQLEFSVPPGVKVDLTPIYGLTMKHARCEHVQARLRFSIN
The series is described as follows: Inhibition of CYP1A2 (unknown origin). In kind it is ADME.

The nature of series [8]: Metabolic stability in mouse liver microsomes assessed as compound remaining at 0.5 uM incubated for 10 mins in presence of NADPH by UV absorbance based assay. The conditions noted are these: read-out: Stability. In kind it is ADME, Microsome. (Microsomes from liver hold many membrane-bound enzymes, among them those of drug oxidation.)
Series [9] addresses T2, Cytochrome P450 3A4. Nature of the series: Inhibition of CYP3A4 (unknown origin) using BFC as substrate. In kind it is ADME.
For series [10], the target named is T2, Cytochrome P450 3A4. Nature of the series: Inhibition of CYP3A4 (unknown origin) using BFC as substrate preincubated with compound followed by substrate addition at 5 mins. In kind it is ADME.
Series [11] deals with T4, Toll-like receptor 7 (Mus musculus, UniProt P58681).
T4 sequence (P58681 whole entry): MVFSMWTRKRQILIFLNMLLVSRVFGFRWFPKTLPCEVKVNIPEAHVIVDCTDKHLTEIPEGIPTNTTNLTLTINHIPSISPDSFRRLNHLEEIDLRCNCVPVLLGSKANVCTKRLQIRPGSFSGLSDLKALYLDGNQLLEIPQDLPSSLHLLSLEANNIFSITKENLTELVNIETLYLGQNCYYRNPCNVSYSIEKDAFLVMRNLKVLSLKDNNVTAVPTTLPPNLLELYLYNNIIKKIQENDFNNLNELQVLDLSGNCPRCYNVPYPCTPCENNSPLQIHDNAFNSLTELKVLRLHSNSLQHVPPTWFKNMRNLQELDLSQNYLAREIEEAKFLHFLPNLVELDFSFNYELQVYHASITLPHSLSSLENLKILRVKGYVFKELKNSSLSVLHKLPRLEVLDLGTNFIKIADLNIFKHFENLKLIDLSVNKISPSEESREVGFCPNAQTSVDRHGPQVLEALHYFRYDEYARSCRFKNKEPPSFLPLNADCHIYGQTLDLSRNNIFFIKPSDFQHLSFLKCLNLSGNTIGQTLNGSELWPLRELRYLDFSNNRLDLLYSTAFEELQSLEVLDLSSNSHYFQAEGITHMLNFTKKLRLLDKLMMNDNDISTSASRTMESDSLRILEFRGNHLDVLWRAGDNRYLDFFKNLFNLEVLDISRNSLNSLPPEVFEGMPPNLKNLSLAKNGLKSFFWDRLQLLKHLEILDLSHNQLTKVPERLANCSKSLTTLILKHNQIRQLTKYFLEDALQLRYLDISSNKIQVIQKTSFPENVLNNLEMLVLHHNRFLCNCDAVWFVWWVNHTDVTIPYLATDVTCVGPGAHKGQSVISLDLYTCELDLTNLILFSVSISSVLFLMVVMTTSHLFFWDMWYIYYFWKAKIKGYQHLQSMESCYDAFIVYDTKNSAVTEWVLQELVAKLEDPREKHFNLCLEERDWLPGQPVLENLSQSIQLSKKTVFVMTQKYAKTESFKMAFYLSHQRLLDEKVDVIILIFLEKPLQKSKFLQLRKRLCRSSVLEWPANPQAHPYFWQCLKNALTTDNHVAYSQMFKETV
The series is described as follows: Agonist activity at mouse TLR7.

For series [12], the target named is T5, Toll-like receptor 7 (Homo sapiens, UniProt Q9NYK1).
T5 sequence (Q9NYK1 whole entry): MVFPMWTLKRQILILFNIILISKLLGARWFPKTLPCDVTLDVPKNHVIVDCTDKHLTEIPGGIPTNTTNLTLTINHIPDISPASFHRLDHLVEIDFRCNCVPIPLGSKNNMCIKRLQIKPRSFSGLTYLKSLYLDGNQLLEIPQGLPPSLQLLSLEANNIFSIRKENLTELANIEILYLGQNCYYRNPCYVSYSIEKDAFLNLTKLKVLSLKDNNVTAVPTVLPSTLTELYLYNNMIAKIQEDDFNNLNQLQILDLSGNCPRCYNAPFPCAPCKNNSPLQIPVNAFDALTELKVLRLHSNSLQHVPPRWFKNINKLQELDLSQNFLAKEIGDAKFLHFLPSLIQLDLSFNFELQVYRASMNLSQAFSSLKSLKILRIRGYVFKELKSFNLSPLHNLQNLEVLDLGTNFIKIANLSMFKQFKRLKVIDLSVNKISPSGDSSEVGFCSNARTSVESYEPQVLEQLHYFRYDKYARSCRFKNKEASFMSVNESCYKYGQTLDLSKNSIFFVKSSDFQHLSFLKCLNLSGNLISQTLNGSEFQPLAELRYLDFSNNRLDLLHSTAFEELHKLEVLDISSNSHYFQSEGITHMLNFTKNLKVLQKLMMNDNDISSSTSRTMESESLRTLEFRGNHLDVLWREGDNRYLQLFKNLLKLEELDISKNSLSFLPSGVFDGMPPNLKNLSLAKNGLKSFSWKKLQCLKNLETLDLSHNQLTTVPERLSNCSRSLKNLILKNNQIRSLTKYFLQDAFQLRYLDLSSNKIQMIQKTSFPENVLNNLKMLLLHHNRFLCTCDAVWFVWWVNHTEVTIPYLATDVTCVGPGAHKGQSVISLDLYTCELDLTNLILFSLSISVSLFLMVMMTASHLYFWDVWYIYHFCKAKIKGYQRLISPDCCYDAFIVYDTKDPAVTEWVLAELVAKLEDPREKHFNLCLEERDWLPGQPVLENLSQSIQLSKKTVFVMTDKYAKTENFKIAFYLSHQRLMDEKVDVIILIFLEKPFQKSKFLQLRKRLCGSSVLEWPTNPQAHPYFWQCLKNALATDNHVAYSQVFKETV
The series is described as follows: Agonist activity at human TLR7 in HEK-Blue hTLR7 cells harboring SEAP reporter transgene incubated for 18 hrs by quanti-blue reagent based assay. In kind it is cell-based.

The target in series [13] is Cytochrome P450 2C9 (Homo sapiens, UniProt P11712). Nature of the series: Inhibition of CYP2C9 (unknown origin). In kind it is ADME.
A short description of series [14]: Metabolic stability in human liver microsomes assessed as compound remaining at 0.5 uM incubated for 10 mins in presence of NADPH by UV absorbance based assay. In kind it is ADME, Microsome. As to conditions: read-out: Stability; call rule not given here.

Cytochrome P450 2D6, sequence (P10635 whole entry): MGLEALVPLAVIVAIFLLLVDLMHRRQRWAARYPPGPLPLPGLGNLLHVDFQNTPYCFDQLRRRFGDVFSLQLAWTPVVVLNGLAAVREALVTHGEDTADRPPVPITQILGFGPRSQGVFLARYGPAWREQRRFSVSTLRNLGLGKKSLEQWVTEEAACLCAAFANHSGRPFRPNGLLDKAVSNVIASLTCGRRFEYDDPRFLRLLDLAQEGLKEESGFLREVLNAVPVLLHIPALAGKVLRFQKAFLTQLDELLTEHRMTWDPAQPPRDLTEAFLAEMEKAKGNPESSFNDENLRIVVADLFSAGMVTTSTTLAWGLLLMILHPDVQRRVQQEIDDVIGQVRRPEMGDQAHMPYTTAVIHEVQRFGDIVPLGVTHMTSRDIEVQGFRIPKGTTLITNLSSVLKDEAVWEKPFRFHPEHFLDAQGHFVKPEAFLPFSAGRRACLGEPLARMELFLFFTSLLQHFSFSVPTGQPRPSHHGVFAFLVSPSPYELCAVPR
Cytochrome P450 2C19, sequence (P33261 whole entry): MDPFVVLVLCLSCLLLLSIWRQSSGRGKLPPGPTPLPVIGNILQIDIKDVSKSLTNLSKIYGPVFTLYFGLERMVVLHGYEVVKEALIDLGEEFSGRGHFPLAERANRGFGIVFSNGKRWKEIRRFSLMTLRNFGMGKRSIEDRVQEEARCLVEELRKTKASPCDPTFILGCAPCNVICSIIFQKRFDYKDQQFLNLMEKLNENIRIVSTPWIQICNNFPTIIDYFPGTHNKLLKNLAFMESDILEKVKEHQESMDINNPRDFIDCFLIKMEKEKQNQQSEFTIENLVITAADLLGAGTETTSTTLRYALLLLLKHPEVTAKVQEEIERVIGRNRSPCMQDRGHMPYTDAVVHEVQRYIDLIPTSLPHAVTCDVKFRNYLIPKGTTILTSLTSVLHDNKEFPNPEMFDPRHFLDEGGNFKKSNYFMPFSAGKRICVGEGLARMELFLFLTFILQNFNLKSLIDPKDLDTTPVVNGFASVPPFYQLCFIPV
Cytochrome P450 2C9, sequence (P11712 whole entry): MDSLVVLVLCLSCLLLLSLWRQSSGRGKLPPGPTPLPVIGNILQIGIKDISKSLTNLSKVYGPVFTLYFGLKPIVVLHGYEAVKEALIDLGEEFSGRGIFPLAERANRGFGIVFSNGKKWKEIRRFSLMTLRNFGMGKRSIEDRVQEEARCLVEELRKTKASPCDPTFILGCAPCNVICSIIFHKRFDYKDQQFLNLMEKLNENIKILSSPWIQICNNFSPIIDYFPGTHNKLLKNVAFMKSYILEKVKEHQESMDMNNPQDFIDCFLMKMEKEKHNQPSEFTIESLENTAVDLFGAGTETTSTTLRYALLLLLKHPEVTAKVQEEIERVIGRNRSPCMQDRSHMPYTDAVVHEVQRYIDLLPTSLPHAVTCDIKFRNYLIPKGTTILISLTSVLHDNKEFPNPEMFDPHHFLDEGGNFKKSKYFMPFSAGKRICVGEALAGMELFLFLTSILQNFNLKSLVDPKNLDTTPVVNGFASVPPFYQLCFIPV
T2 sequence (P08684 whole entry): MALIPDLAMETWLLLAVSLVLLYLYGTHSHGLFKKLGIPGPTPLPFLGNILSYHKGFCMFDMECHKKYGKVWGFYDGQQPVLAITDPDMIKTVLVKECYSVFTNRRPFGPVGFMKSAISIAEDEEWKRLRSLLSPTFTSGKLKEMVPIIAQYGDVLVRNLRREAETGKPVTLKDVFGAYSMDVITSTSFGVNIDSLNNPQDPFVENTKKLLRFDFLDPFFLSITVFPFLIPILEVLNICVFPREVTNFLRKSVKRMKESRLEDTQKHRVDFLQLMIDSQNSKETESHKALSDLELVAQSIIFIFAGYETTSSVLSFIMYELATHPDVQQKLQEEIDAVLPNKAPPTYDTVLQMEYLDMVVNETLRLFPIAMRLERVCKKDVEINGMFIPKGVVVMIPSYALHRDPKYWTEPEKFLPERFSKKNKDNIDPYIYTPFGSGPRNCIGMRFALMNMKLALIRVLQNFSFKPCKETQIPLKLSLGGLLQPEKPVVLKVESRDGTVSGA
Voltage-gated inwardly rectifying potassium channel KCNH2, sequence (Q12809 whole entry): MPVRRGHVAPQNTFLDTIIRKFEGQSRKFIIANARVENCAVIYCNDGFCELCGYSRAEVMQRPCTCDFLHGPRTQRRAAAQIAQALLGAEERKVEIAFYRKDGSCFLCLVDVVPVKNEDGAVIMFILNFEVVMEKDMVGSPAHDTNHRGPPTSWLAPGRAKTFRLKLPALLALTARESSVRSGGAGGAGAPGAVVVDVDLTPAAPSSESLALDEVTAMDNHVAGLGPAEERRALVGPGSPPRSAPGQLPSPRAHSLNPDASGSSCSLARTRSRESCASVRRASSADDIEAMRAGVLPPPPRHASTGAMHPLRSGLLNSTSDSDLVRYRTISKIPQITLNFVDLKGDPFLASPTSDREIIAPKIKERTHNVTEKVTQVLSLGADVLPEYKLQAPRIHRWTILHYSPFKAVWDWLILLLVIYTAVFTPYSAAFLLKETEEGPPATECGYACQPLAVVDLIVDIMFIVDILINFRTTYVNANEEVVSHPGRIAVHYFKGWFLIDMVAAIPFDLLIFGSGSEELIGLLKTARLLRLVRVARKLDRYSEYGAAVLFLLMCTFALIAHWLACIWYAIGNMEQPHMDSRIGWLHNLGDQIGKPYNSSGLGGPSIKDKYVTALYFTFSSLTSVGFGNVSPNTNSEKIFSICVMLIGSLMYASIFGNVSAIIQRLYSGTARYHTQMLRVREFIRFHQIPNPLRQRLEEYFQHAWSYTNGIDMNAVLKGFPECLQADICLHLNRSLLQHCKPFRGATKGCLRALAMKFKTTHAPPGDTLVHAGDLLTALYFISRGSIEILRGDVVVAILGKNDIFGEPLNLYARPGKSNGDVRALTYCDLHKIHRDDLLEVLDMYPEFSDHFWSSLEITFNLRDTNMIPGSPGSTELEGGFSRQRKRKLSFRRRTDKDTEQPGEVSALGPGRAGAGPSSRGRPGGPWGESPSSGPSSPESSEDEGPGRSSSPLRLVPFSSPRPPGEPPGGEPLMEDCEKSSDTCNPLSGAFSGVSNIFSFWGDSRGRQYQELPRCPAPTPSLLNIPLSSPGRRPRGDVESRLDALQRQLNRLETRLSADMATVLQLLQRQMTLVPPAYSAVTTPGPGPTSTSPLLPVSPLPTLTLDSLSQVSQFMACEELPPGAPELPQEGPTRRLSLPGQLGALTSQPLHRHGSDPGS

Turning to `CCCCNc1nc(N)nc2c(CC)nn(Cc3ncc(C4CCNCC4)cc3OC)c12`, the 50% inhibitory concentration (IC50) (usually the concentration that gives 50% inhibition) was > 20 µM in [1]; > 20 µM in [2]; > 50 µM in series [4]; > 20 µM in series [5]; > 20 µM in series [6]; > 20 µM in series [7]. Moreover, the IC50 in [9], in series [10] and in series [13] was > 20 µM throughout. Further, the 50% inhibitory concentration (IC50) at 72 h in [3] is > 25 µM. Also, the figures for the remaining at 10 min, 0.5 µM in series [8] and in series [14] were 47% and 74%, respectively. Moreover, the concentration for a half-maximal effect (EC50) (as a rule, the midpoint of the concentration-response curve) in series [11] was > 5 µM; in [12], 0.572 µM.
In the case of `CCCCNc1nc(N)nc2cnn(Cc3ncc(C4CCNCC4)cc3OC)c12`, the IC50 in series [1] was > 20 µM; in [2], > 20 µM; in series [4], 19 µM; in series [5], > 20 µM; in series [6] it was > 20 µM; in series [7], > 20 µM. Also, the IC50 in series [9], in series [10] and in series [13] was > 20 µM throughout. The IC50 at 72 h in series [3] is > 25 µM. Besides, the results for the remaining at 10 min, 0.5 µM in [8] and in series [14] were 97% and 100%, respectively. Also, the EC50 in series [11] turned out to be 0.984 µM; in series [12] it was 0.084 µM.
On to `CCCCNc1nc(N)nc2cnn(Cc3ccc(N4CCNCC4)cc3OC)c12`, for which the half-maximal inhibitory concentration (IC50) in series [1], in series [2], in [5], in series [6], in series [7] and in [9] was > 20 µM throughout. Also, the IC50 in [10] and in series [13] was > 20 µM in each case. Further, the IC50 at 72 h in series [3] worked out at 20 µM. Moreover, the “inhibition (INH)” value in series [4] (human) is listed as “Not Active”. For the same compound, the figures for the remaining at 10 min, 0.5 µM in series [8] and in series [14] were 5% and 100%, respectively. In addition, the EC50 in [11] was determined as 1.95 µM; in series [12] it was 0.78 µM.

These data come from ChEMBL document CHEMBL5357082, “Identification and Optimization of Small Molecule Pyrazolopyrimidine TLR7 Agonists for Applications in Immuno-oncology” (ACS Med Chem Lett, 2024).
